# Data taken from ChEMBL document CHEMBL3632554, “Ligand binding studies, preliminary structure-activity relationship and detailed mechanistic characterization of 1-phenyl-6,6-dimethyl-1,3,5-triazine-2,4-diamine derivatives as inhibitors of Escherichia coli dihydrofolate reductase” (Eur J Med Chem, 2015).
# Activity calls are given as the source filed them. No cut-off for these calls is given here.
# Biological target: T1, Dihydrofolate reductase (Escherichia coli) (UniProt P0ABQ4)
# T1 sequence (whole entry): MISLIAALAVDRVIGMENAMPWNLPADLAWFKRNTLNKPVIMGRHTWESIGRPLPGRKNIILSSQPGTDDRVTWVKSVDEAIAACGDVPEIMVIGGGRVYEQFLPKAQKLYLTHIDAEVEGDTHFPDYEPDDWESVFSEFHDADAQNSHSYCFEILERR
# Description: Inhibition of Escherichia coli DHFR assessed as NADP formation by quadratic Morrison plot analysis
row,Structure (SMILES),Ki(app)
1,CN(C)c1ccc(N2C(N)=NC(N)=NC2(C)C)cc1,inactive
2,CC1(C)N=C(N)N=C(N)N1c1ccc(CCCCc2ccc(Cl)cc2Cl)cc1,inactive
